pIC50: −log10 of the molar value.
Assays:
[1] = target: T1, hP2X3 (human Purinergic P2X receptors subtype 3) (Homo sapiens, UniProt P56373); assay: Fluo-4 calcium mobilization assay (FDSS7000), antagonists at human P2X3 receptor in RLE/hP2X3 cells; type: cell-based; conditions: RLE cells stably expressing hP2X3; 20 min preincubation; 2 uM ATP
T1 construct: expressed in transfected cells; host or cells: RLE cells (rat liver endothelium, ATCC)
T1 sequence (P56373 1-397): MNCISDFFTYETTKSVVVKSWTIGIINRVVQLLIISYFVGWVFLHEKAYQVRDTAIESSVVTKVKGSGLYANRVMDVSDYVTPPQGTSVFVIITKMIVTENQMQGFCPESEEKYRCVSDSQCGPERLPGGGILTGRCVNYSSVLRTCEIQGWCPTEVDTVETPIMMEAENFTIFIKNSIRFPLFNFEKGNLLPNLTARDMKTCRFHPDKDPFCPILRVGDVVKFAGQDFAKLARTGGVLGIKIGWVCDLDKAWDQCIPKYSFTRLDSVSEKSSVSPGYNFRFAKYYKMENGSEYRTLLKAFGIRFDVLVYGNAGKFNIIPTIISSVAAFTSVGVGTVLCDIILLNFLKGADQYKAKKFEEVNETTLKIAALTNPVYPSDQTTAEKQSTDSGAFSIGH
Protocol: The antagonist properties of compounds in the present invention were assayed as inhibitors of intracellular calcium increase induced by activation of hP2X3 (human Purinergic P2X receptors subtype 3, accession number AB016608 for clone A and accession number NM_002559 for clone B), expressed in RLE cells (rat liver […], ATCC. The RLE/hP2X3 cells were grown in William's medium 1× (Gibco, 12551-032), supplemented with 10% Fetal bovine serum (Wisent, 090850), 2 mM L-Glutamine (Wisent, 609-065-EL), and 600 μg/mL Geneticin G-418 (Wisent, 61234) in a humidified incubator (5% CO2 and 37° C.).
Fluo-4 assay on FDSS7000 (Hamamatsu) was performed using cryopreserved RLE cells stably expressing hP2X3 plated in 384 well plates, 24 hr before the experiment at a density appropriate for obtaining the desired final confluence. After processing the cell plates with Fluo-4 and performing a subsequent incubation followed by washing steps, a double addition was carried out. The first addition included the test compounds diluted in HBSS buffer containing 2 mM CaCl2 preincubated for 20 min before a second addition. The second addition included 2 uM of ATP. Calcium mobilization was measured with the FDSS7000 over a time lapse of 3 min, and fluorescent counts were exported for analysis. […] Hill coefficients and % inhibitions can also be determined.

[2] = tested on: rat FCA 96 hr paw model of inflammatory pain, mechanical hyperalgesia; assay: Rat FCA 96 hr paw model of inflammatory pain: mechanical hyperalgesia (Ugo Basile analgesy meter); type: in vivo; conditions: oral dosing 0.3-1-3-10-20 μmol/kg, 96 h after FCA
Protocol: (§1) One of the compounds of the present invention was evaluated in an in vivo model of inflammatory pain.
(§2) Male Sprague-Dawley rats (Charles River, St-Constant, Qc, CAN) weighing 200-225 g were utilized for the animal experiment studies. The animals were group-housed in polycarbonate, ventilated cages (filter top) in a controlled environment room (12-h light/dark cycle, 20.5-23.5° C., relative humidity: 40-70%) with food (14% Protein Rodent Maintenance Diet, Harlan Teklad, Madisson, Wis., USA) and water ad libidum.
Inflammation was induced by injection of a single 40 μl Freund's complete adjuvant (FCA) intra-plantar injection into the rat's left hindpaw. All experiments were conducted 96h after FCA administration. Twenty-four hours prior to behavioral testing animals were brought to the laboratory for acclimatization to the new environment. Animals were sacrificed immediately after data acquisition.
Mechanical hyperalgesia was assessed using the Ugo Basile analgesy meter (Ugo Basile, Comerio, Italy) Animals were gently restrained, and a steadily increasing pressure was applied to the dorsal surface of a hind paw via a probe with a dome-shaped tip (diameter of 1 mm). The pressure required to elicit paw withdrawal was determined. An assay cut off was set at 295 g. […] Paw withdrawal thresholds were calculated as the mean of the two values. […]

[3] = tested on: rat FCA 96 hr paw model of inflammatory pain, heat hyperalgesia; assay: Rat FCA 96 hr paw model of inflammatory pain: heat hyperalgesia (Plantar Test); type: in vivo; conditions: oral dosing 0.3-1-3-10-20 μmol/kg, 96 h after FCA
Protocol: as §1, §2
Inflammation was induced by injection of a single 40 μl Freund's complete adjuvant (FCA) intra-plantar injection into the rat's left hindpaw. All experiments were conducted 96h after FCA administration. […]
Heat hyperalgesia (Plantar Test) was assessed using a Paw Thermal Stimulator to apply a controlled heat to the plantar surface of the affected paw. […] The heat source and timer were then turned on simultaneously; when the animal withdrew the hind paw the number of seconds was recorded. […]
Satellite animals were used to monitor the free plasma concentration of example 15 at the doses and time points used in the nociceptive tests. Free plasma EC50 values in behavioral studies were determined from 4-point concentration-response curves using non-linear regression and a sigmoidal variable slope logistic model (Prism 4.03, GraphPad Software Inc., USA).

Row | SMILES | pIC50 [1] | also measured
1 | CCC(=O)N1CCO[C@@H](Cc2c(-c3c(F)cc(C(=O)NC)cc3F)nc3cc(Cl)ccn23)C1 [Example 30] | 8.22 | 
2 | CNC(=O)c1ccc(-c2nc3cc(Cl)ccn3c2C[C@H]2CN(C(C)=O)CCO2)c(C)c1 [Example 25] | 8.15 | 
3 | CNC(=O)c1cc(F)c(-c2nc3cc(Cl)ccn3c2C[C@H]2CN(C(C)=O)CCO2)c(F)c1 [Example 29] | 8.30 | 
4 | CCC(=O)N1CCO[C@H](Cc2c(-c3c(F)cc(C(=O)NC)cc3F)nc3cc(C)ccn23)C1 [Example 35] | 7.80 | 
5 | CNC(=O)c1ccc(-c2nc3cc(C)ccn3c2CC2CCN(C(=O)OC)CC2)c(C)c1 [Example 45, methyl 4-((7-methyl-2-(2-methyl-4-(methylcarbamoyl)phenyl)imidazo[1,2-a]pyridin-3-yl)methyl)piperidine-1-carboxylate] | 7.59 | 
6 | CNC(=O)c1ccc(-c2nc3cc(C)ccn3c2C[C@@H]2CN(C(C)=O)CCO2)c(C)c1 [Example 47] | 7.06 | 
7 | CNC(=O)c1ccc(-c2nc3cc(C)ccn3c2CC2CCCN(C(=O)OC)C2)c(C)c1 (stereo not shown) [Example 37] | 7.96 | 
8 | CNC(=O)c1ccc(-c2nc3cc(C#N)ccn3c2C[C@H]2CN(C(=O)OC)CCO2)c(C)c1 [Example 36] | 6.94 | 
9 | CNC(=O)c1ccc(-c2nc3cc(C)ccn3c2C[C@H]2CN(C(C)=O)CCO2)c(C)c1 [Example 20] | 8.40 | 
10 | CNC(=O)c1ccc(-c2nc3cc(C)ccn3c2CC2CCN(C(C)=O)C2)c(C)c1 (stereo not shown) [Example 44] | 6.99 | 
11 | CNC(=O)c1ccc(-c2nc3cc(C)ccn3c2C[C@@H]2CN(C(=O)OC)CCO2)c(C)c1 [Example 22] | 7.35 | 
12 | CNC(=O)c1cc(F)c(-c2nc3cc(Cl)ccn3c2C[C@H]2CN(C(=O)OC)CCO2)c(F)c1 [Example 28] | 8.22 | 
13 | CNC(=O)c1cc(C)c(-c2nc3cc(C)ccn3c2C[C@H]2CN(C(C)=O)CCO2)cc1F [Example 18] | 8.15 | 
14 | CNC(=O)c1ccc(-c2nc3cc(C)ccn3c2C[C@H]2CN(C(=O)OC)CCO2)c(C)c1 [Example 21] | 8.15 | 
15 | CCC(=O)N1CCO[C@@H](Cc2c(-c3cc(F)c(C(=O)NC)cc3C)nc3cc(C)ccn23)C1 [Example 17] | 8.22 | 
16 | CNC(=O)c1cc(F)c(-c2nc3cc(C)ccn3c2C[C@H]2CN(C(=O)OC)CCO2)c(F)c1 [Example 15, (S)-methyl-2-((2-(2,6-difluoro-4-(methylcarbamoyl)phenyl)-7-methylimidazo[1,2-a]pyridin-3-yl)methyl)morpholine-4-carboxylate] |  | reversal of mechanical hyperalgesia [2]: free plasma concentration dependent reversal; reversal of heat hyperalgesia [3]: free plasma concentration dependent reversal
17 | CCC(=O)N1CCO[C@@H](Cc2c(-c3cc(F)c(C(=O)NC)cc3C)nc3cc(Cl)ccn23)C1 [Example 26] | 7.96 | 
18 | CNC(=O)c1cc(F)c(-c2nc3cc(C)ccn3c2C[C@H]2CN(C(C)=O)CCO2)cc1F [Example 23] | 7.74 | 
19 | CCC(=O)N1CCO[C@@H](Cc2c(-c3c(F)cc(C(=O)NC)cc3F)nc3cc(C)ccn23)C1 [Example 16] | 8.52 | 
20 | CNC(=O)c1cc(C)c(-c2nc3cc(C)ccn3c2C[C@@H]2CN(C(C)=O)CCO2)cc1F [Example 19] | 6.80 | 
21 | CNC(=O)c1cc(C)c(-c2nc3cc(C)ccn3c2C[C@H]2CN(C(=O)OC)CCO2)cc1F [Example 24] | 8.00 | 
22 | CNC(=O)c1cc(F)c(-c2nc3cc(C)ccn3c2C[C@H]2CN(C(C)=O)CCO2)c(F)c1 [Example 32] | 8.52 | 
23 | CNC(=O)c1ccc(-c2nc3cc(Cl)ccn3c2C[C@@H]2CN(C(C)=O)CCO2)c(C)c1 [Example 27] | 6.95 | 
24 | CNC(=O)c1ccc(-c2nc3cc(C)ccn3c2CC2CC(C)N(C(C)=O)C2)c(C)c1 (stereo not shown) [Example 42] | 7.23 | 
25 | CNC(=O)c1ccc(-c2nc3cc(C)c(F)cn3c2C[C@H]2CN(C(C)=O)CCO2)c(C)c1 [Example 39] | 8.00 | 
26 | CNC(=O)c1ccc(-c2nc3cc(C)ccn3c2CC2CCCN(C(C)=O)C2)c(C)c1 (stereo not shown) [Example 38] | 8.00 | 
27 | CNC(=O)c1ccc(-c2nc3cc(C)ccn3c2CC2CCN(C(=O)OC)C2)c(C)c1 (stereo not shown) [Example 41] | 7.08 | 
28 | CCNC(=O)c1ccc(-c2nc3cc(C)ccn3c2C[C@H]2CN(C(C)=O)CCO2)c(C)c1 [Example 33] | 8.15 | 
29 | CCC(=O)N1CCO[C@@H](Cc2c(-c3ccc(C(=O)NC)cc3C)nc3cc(C)ccn23)C1 [Example 31] | 8.30 | 
30 | CNC(=O)c1ccc(-c2nc3cc(C)ccn3c2CC2CCN(C(C)=O)CC2)c(C)c1 [Example 46, 4-(3-((1-acetylpiperidin-4-yl)methyl)-7-methylimidazo[1,2-a]pyridin-2-yl)-N,3-dimethylbenzamide] | 7.18 | 

— patent publication US9937185B2, “Imidazopyridine compounds and uses thereof” (NEOMED INSTITUTE, priority 2013, dated 2018)
